Reference: article PMC7730438, “Generation of KS-58 as the first K-Ras(G12D)-inhibitory peptide presenting anti-cancer activity in vivo” (Scientific Reports, 2020)
Starred links: 1 amine or outer side, 2 acyl side, 3 side chain; linkers in the order of their positions; H or OH if unused. Positions of bridges follow the written chain, without caps; N, C: chain ends. Non-standard residues stand in square brackets, D forms with d. Residues, ends and D or L forms follow the SMILES beside them. Phe(4-F) = N[C@@H](Cc1ccc(F)cc1)C(=O)O; X1 = CCCCCCC[C@H](N[*:1])C(=O)[*:2]; Nle = CCCC[C@H](N)C(=O)O; X2 = C(C[*:1])C[*:2]; βAla = NCCC(=O)O

Assays:
[1] = system: PANC-1 orthotopic xenografts; test: Anti-cancer efficacy in PANC-1 orthotopic xenografts; format: in vivo, mice; conditions: 40 mg/kg iv once every 2 days for 4 weeks
Method: To establish orthotropic xenograft tumor models, 2.5 × 10^6 cells/50 µL of PANC-1 cells were injected into the pancreas of BALB/cAJcl-nu/nu male mice (8 weeks old; CLEA Japan, Inc.). KS-58 was dissolved in DMSO and then tenfold diluted by saline. The peptide solution was then injected intravenously to the mice bearing tumors once every 2 days for 4 weeks (40 mg/kg, n = 7). Organ weights of the pancreas, liver, and kidney were measured.

[2] = Stability of peptide in rat plasma (RP-HPLC); format: in vitro ADME
Method: The stability of KS-58 in rat plasma was also evaluated. The peptides were incubated with rat plasma at 37 °C for different time periods (0 and 24 h), and the remaining amount of peptide was then determined using RP-HPLC. By comparing the peak area of the peptide, the remaining amount of peptide after plasma incubation was roughly estimated.
Each peptide (10 mM, 1 μL) was incubated with rat plasma (20 μL) prepared in house. […] The mixture was stored for 10 min at 4 °C and centrifuged at 15,000 rpm for 10 min at 4 °C. The supernatant was recovered and was directly supplied to RP-HPLC to determine the remaining amount of unmodified peptides in the sample.

[3] = system: Capan-1 cells; test: Cell proliferation assay (CellTiter-Glo, 72 h); format: cell-based, human; conditions: Capan-1 (G12V), peptide 30 µM, n = 4, ± SEM
Method: (§1) A427 (ATCC HTB-53), A549 (ATCC CCL-185), H1975 (ATCC CRL-5908), PANC-1 (ATCC CRL-1469), MIA PaCa-2 (ATCC CRL-1420), and Capan-1 (ATCC HTB-79) cells were purchased from ATCC, and each cell was cultured in medium supplemented with 10% fetal bovine serum (FBS), according to the protocol recommended by the manufacture.
(§2) The effect of peptides on cell proliferation of A427, A549, H1975, PANC-1, MIA PaCa-2, and Capan-1 cells was determined by 72 h exposure to peptides. Cells were seeded at 1000 cells/well in 96-well tissue culture plates in each growth media and allowed to adhere overnight on day 0. Peptides were solved in DMSO and then diluted with each growth media for a constant final DMSO concentration of 0.5%. Media in the wells were removed and replaced with diluted peptide solutions, and cells were incubated for 3 days. During the incubation, medium containing the peptides was replaced every day. Relative cell numbers were estimated using CellTiter-Glo assay kit (G7570, Promega, WI, USA) according to the manufacturer’s instructions. Luminescence was detected using SpectraMax i3x (MOLECULAR DEVICES, CA, USA). Cell proliferation rate (%) was calculated based on cell numbers at day 0 as 0% and at day 3 without peptide treatment as 100%.

[4] = system: MIA PaCa-2 cells; test: Cell proliferation assay (CellTiter-Glo, 72 h); format: cell-based, human; conditions: MIA PaCa-2 (G12C), peptide 30 µM, n = 4, ± SEM
Method: as §1, §2

[5] = rat plasma, incubation time 0 h

- Peak area value ([2]; Input (NT, no-serum treatment)): 491,842
- recovery ([2]; input control without serum treatment, Input (NT, no-serum treatment), read-out: Recovery rate (%)): 100%
- Stability in rat plasma (in words) ([2]; rat plasma, 37 °C, 24 h): remained intact for up to at least 24 h
- Peak area value ([2]; rat plasma, 37 °C, incubation time 24 h): 467,142
- recovery at 24 h, 0.476 mM ([2]; rat plasma, 37 °C, incubation time 24 h, read-out: Recovery rate (%)): 95%
- remaining at 24 h, 0.476 mM ([2]; rat plasma, 37 °C, incubation time 24 h, read-out: Residual rate (%)): 98.6%
- Peak area value [2, 5]: 473,575
- Residual rate (%) [2, 5]: 100%
- recovery at 0 h, 0.476 mM ([2]; rat plasma, incubation time 0 h, read-out: Recovery rate (%)): 96.3%
Compound: CCCCCCC[C@@H]1NC(=O)[C@@H]2CSCCCSC[C@@H](NC(=O)[C@H](Cc3c[nH]c4ccccc34)NC(=O)[C@@H]3CCCN3C(=O)[C@H](CC(=O)O)NC(=O)[C@H](Cc3ccc(F)cc3)NC(=O)[C@H](CO)NC1=O)C(=O)NCCC(=O)N1CCC[C@H]1C(=O)N[C@@H](CCCC)C(=O)N2 [KS-58, c[βAla-Pro-Nle-c(Cys-Anon-Ser-4fF-Asp-Pro-Trp-^DCys)]] (cyclo([βAla]P[Nle]C[X1]S[Phe(4-F)]DPW[dC]); linker 4-11 via X2)
- Adverse side effects (loss of body weight, organ swelling of liver and kidney) ([1]; both xenografts): without any adverse side effects
- cell growth of PANC-1 (pancreas weight; Sham = 0%, vehicle = 100%) ([1]; orthotopic xenograft): 65%
- Cell proliferation (%) [3]: 94.9 ± 2.2%
- Cell proliferation (%) [4]: 86.8 ± 2.3%
